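Dose response: 5 concentrations. Exposure: 48 h. Format: 96-well plates. Endpoint: linear interpolation; highest concentration if not reached. TGI denotes the concentration required for complete inhibition of growth.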
Key:
Test in all cases: NCI anticancer screen, dose series, 48 h
HCC-2998 colon = system: HCC-2998 colon
RXF 393 renal = system: RXF 393 renal
OVCAR-4 ovarian = system: OVCAR-4 ovarian
HCT-116 colon = system: HCT-116 colon
NCI-H226 lung = system: NCI-H226 lung
SNB-19 CNS = system: SNB-19 CNS
SN12C renal = system: SN12C renal
SF-295 CNS = system: SF-295 CNS
MCF7 breast = system: MCF7 breast
OVCAR-8 ovarian = system: OVCAR-8 ovarian
CAKI-1 renal = system: CAKI-1 renal
UO-31 renal = system: UO-31 renal
HOP-62 NSCLC = system: HOP-62 NSCLC
HCT-15 colon = system: HCT-15 colon
OVCAR-3 ovarian = system: OVCAR-3 ovarian
HS 578T breast = system: HS 578T breast
PC-3 prostate = system: PC-3 prostate

Row | SMILES | TGI (HCC-2998 colon) [µM] | TGI (RXF 393 renal) [µM] | TGI (OVCAR-4 ovarian) [µM] | TGI (HCT-116 colon) [µM] | TGI (NCI-H226 lung) [µM] | TGI (SNB-19 CNS) [µM] | TGI (SN12C renal) [µM] | TGI (SF-295 CNS) [µM] | TGI (MCF7 breast) [µM] | TGI (OVCAR-8 ovarian) [µM] | TGI (CAKI-1 renal) [µM] | TGI (UO-31 renal) [µM] | TGI (HOP-62 NSCLC) [µM] | TGI (HCT-15 colon) [µM] | TGI (OVCAR-3 ovarian) [µM] | TGI (HS 578T breast) [µM] | TGI (PC-3 prostate) [µM]
1 | Nc1ncnc2c1ncn2-c1ccc([N+](=O)[O-])cn1 | > 100 | > 100 | > 100 | > 100 | > 100 | > 100 | > 100 | > 100 | > 100 | > 100 | > 100 | > 100 | > 100 | > 100 | > 100 | > 100 | 
2 | OC(Cc1ccc2ccccc2n1)(C(F)(F)Cl)C(F)(F)Cl | > 10 |  | > 10 | > 10 | > 10 | > 10 | > 10 | > 10 | > 10 | > 10 | > 10 | > 10 | > 10 | > 10 | > 10 | > 10 | > 10
3 | CC(C)CC(NP(=O)(O)OC1OC(C)C(O)C(O)C1O)C(=O)NC(Cc1c[nH]c2ccccc12)C(=O)O (centres undefined) | > 100 |  | > 100 | > 100 | > 100 | > 100 | > 100 | > 100 | > 100 | > 100 | > 100 | > 100 | > 100 | > 100 | > 100 | > 100 | > 100
4 | NS(=O)(=O)c1nnc(NC(=O)c2cccc([N+](=O)[O-])c2)s1 | > 100 | > 100 | > 100 | > 100 | > 100 | > 100 | > 100 | > 100 | > 100 | > 100 | > 100 | > 100 | > 100 | > 100 | > 100 | > 100 | 
5 | CC(=O)C1(C)CC(C#N)(C#N)C(C#N)=C1N (centres undefined) | > 100 | > 100 | > 100 | > 100 | > 100 | > 100 | > 100 | > 100 | > 100 | > 100 | > 100 | > 100 | > 100 | > 100 | > 100 | > 100 | > 100
6 | COc1cc(C(C[N+](=O)[O-])SC(C)=O)ccc1OCc1ccccc1 (centres undefined) | 46.6 | 3.18 | 27.7 | 8.26 | 18.1 | 20.9 | 15.7 | 10.3 | 10.7 | 13.6 | 27.7 | 10.3 | 14.3 | 9.11 | 7.87 | 12.1 | 17.4
7 | COC1CC(C)([N+](=O)[O-])C(O)C(C)O1 (centres undefined) | > 100 | > 100 | > 100 | > 100 | > 100 | > 100 | > 100 | > 100 | > 100 | > 100 | > 100 | > 100 | > 100 | > 100 | > 100 | > 100 | > 100
8 | CC(C)CCC[C@@H](C)C1CCC2[C@@H]3CCC4C[C@@H](NS(C)(=O)=O)CC[C@]4(C)C3CC[C@@]21C (some centres undefined) |  | > 100 | > 100 | > 100 | > 100 | > 100 | > 100 | > 100 | > 100 | > 100 | > 100 | > 100 | > 100 | > 100 | > 100 | > 100 | > 100
9 | O=c1cc(NNc2ccccc2F)[nH]c(=O)[nH]1 | 34.9 | 3.29 | 31.5 | 30.6 | 42.8 | > 100 |  |  | 21.2 |  | 25.7 | 24.6 |  | 29.6 | 31.6 | 63.4 | 32.9
10 | c1ccc(-c2c3c(nc4c2CC[C@H]4NC2=NCCN2)[C@@H](NC2=NCCN2)CC3)cc1 | > 100 | > 100 | > 100 | > 100 | > 100 |  | > 100 | > 100 | > 100 | > 100 | > 100 | > 100 | > 100 | > 100 | > 100 | > 100 | > 100
11 | CCCCOCOc1ccccc1P1(=O)COc2ccccc2OC1 | > 100 | > 100 | > 100 | > 100 |  | > 100 | > 100 | > 100 | > 100 |  | > 100 | > 100 | > 100 | > 100 | > 100 | > 100 | > 100
12 | CC(=O)Oc1c(OC(C)C)c(C)c(O[Si](C(C)C)(C(C)C)C(C)C)c2[nH]c3ccccc3c12 |  | > 100 | > 100 | > 100 | > 100 | > 100 | > 100 | > 100 | > 100 | > 100 | > 100 | > 100 | > 100 | > 100 | > 100 | > 100 | > 100
13 | C[C@@H]1CCC2C(C)(C)C(/C=C\C=O)C3(C)OC213 (some centres undefined) | 78.4 | > 100 | > 100 | 98.2 |  | > 100 |  | > 100 | > 100 | 44.5 | > 100 | > 100 | > 100 | > 100 | > 100 | 75.6 | > 100
14 | CCCC(C)NC(=O)c1ccc(N(C)Cc2cnc3nc(N)nc(N)c3n2)cc1 (centres undefined) |  | 84.5 |  | > 100 | 47.6 | > 100 | > 100 | > 100 | 78 | 75.2 | > 100 | > 100 | 89.4 | > 100 | 46.2 | 44.2 | > 100
15 | NC(=O)C(=CNC(=S)Nc1ccc(S(=O)(=O)Nc2ccccn2)cc1)C(N)=O |  | > 100 | > 100 | > 100 | > 100 | > 100 | > 100 | > 100 | > 100 | > 100 | > 100 | > 100 | > 100 | > 100 | > 100 | > 100 | > 100
16 | CCOC(=O)c1nc2ccccc2nc1Oc1ccc(C#N)cc1 |  | > 100 | > 100 | > 100 | > 100 | > 100 | > 100 | > 100 | > 100 | > 100 |  | > 100 | > 100 | > 100 | > 100 | > 100 | > 100
17 | Oc1cnc2c(O)cccc2c1 | > 100 |  |  | > 100 | 85.5 | > 100 | > 100 | > 100 | > 100 | 80.5 |  | > 100 | > 100 | > 100 | 65 | > 100 | > 100
18 | CCOC(=O)[C@@H]1ON2O[C@H](OC3CCCCC3c3ccccc3)C[C@H]3OC(=O)[C@@H]1C32 (some centres undefined) | > 100 | > 100 |  | > 100 | > 100 |  | > 100 | > 100 | > 100 | > 100 | > 100 | > 100 | > 100 | > 100 | > 100 | > 100 | 
19 | NC(=O)c1nnsc1NN=O | > 100 | > 100 | > 100 | > 100 | > 100 | > 100 | > 100 | > 100 | > 100 | > 100 | > 100 | > 100 | > 100 | > 100 |  | > 100 | > 100
20 | CCOC(=O)c1sc2c(c1O)c(=O)n(-c1ccccc1)c(=S)n2-c1ccccc1 | > 100 | > 100 | > 100 |  | > 100 | > 100 | > 100 | > 100 | > 100 | > 100 |  | > 100 |  | > 100 | > 100 | > 100 | 
21 | CN=C(N)N=Nc1c(O)[nH]c2ccccc12 | > 100 | > 100 | > 100 | > 100 | > 100 | > 100 | > 100 | > 100 | > 100 | > 100 | > 100 | > 100 | > 100 | > 100 |  | > 100 | > 100
22 | COC(=O)c1nn2ccc3ccccc3c2c1C(=O)OC |  | > 100 | > 100 | > 100 | > 100 | > 100 | > 100 | > 100 | > 100 | > 100 | > 100 | > 100 | > 100 | > 100 |  | > 100 | > 100
23 | CSc1nn(C)cc2nc(C)nc1-2 |  | > 100 |  | > 100 | > 100 | > 100 | > 100 | > 100 | > 100 | > 100 | > 100 | > 100 | > 100 | > 100 | > 100 | > 100 | > 100
24 | CCOC(=O)N(C)C(=C(F)F)C(F)(F)F | 37.7 |  | 90.8 | 55.2 | 58.3 |  |  | > 100 | > 100 | 79.4 |  | > 100 | 68.9 | 34.3 | > 100 | > 100 | > 100
25 | O=C(Cn1c(=O)oc2ccc(C(=O)c3ccc(F)cc3)cc21)c1ccccc1 | > 100 | > 100 | > 100 | > 100 | > 100 | > 100 | > 100 |  | > 100 | > 100 | > 100 | > 100 | > 100 | > 100 |  | > 100 | > 100
26 | COc1cc(COC(=O)N2CC=CC2C(=O)O)c([N+](=O)[O-])cc1OC (centres undefined) | > 100 | > 100 |  | > 100 | > 100 | > 100 | > 100 | > 100 | > 100 | > 100 |  | > 100 | > 100 | > 100 | > 100 | > 100 | > 100
27 | CC1(C)S[C@H](CN)N[C@H]1C(=O)OC(c1ccccc1)c1ccccc1 | 36 | > 100 | > 100 | > 100 | > 100 |  | > 100 | > 100 | > 100 | > 100 | > 100 | 92.6 | > 100 | > 100 |  | > 100 | 92.4
28 | CCc1cc2c(c3c1CCCC3)CC1(Cc3ccc(C(=O)OC)cc3C1)C2 (centres undefined) | > 100 | > 100 | > 100 | > 100 | > 100 | > 100 | > 100 | > 100 | > 100 | > 100 |  | > 100 | > 100 | > 100 | > 100 | > 100 | > 100
29 | CCN(CC)C(=S)SC1C(=O)NC(=O)NC1=O | > 100 | > 100 | > 100 | > 100 | > 100 |  | > 100 | > 100 | > 100 | > 100 | > 100 | > 100 | > 100 | > 100 | > 100 | > 100 | > 100
30 | COc1cccc(C=C2N=C(c3ccccc3)N(n3c(-c4ccccc4)nc4ccccc4c3=O)C2=O)c1 | > 100 |  |  | > 100 | > 100 | > 100 | > 100 | > 100 | > 100 | > 100 | > 100 | > 100 | > 100 | > 100 |  | > 100 | > 100
